Reference: US20060229433A1, “Modified antiviral peptides with increased activity and cell membrane affinity” (priority 2003, published 2006)
Square brackets hold non-standard residues; d marks the D form. Peptide text beside a SMILES is read from it. Ava = NCCCCC(=O)O

Columns and labels:
[1] = test system: HIV-1 89.6 subtype B dualtropic (X4R5); settings: PBMC, Table 5
[2] = test system: HIV-1 NL 4-3; experiment: Infection of human peripheral blood lymphocytes (PBL) with NL 4-3 strain, p24 ELISA; assay type: cell-based
Procedure: Peripheral blood lymphocytes from an HIV-1 negative donor were grown as described earlier, maintained in RPMI 1640 with ultraglutamine, supplemented with IL2 (20 μg/ml), penicillin (100 U/ml), streptomycin (100 μg/ml), and 10% heat-inactivated fetal calf serum. Cells were stimulated three days in the medium supplemented with phytohemagglutinin (20 U/ml PHA P, DIFCO, Detroit Mich.).
Samples of 10^6/100 μL PBL cells were preincubated in 96-well microtiter plates in culture medium containing various concentrations of peptides. After a 1 h treatment at 37° C., 100 μl of diluted viral solution of HIV-1 was added. The cells were exposed to the virus for 1 h at 37° C. at a multiplicity of infection of 1000 TCID50 per ml. The cells were washed three times and cultured at […] of medium with the treatment in 24-well plates incubated at 37° in culture medium with the peptides in 5% CO2. The treatment was permanent before virus adsorption, during virus adsorption and after infection. The PBL culture medium was replaced every 3-4 days during three weeks always in the presence of peptide. The cell viability was assessed by cell counts and trypan-blue exclusion assay. The viral production in the culture supernatant was quantified by p24 ELISA test, as described earlier. All the experiments have been done in blind-tests. Tests have been done in duplicate.

[3] = test system: HIV-1 NL 4-3; experiment: HIV-1 infection of C8166 cells (syncytia formation, p24 ELISA) with HIV-1 NL 4-3; assay type: cell-based; parameters: key: ++, +, (+), (+)− and − represent decreasing numbers of syncitia formed.; ++, +, (+), (+)− and − represent decreasing numbers of syncitia formed.; ++, +, (+), (+)− and − represent decreasing numbers of syncitia formed.; ++, +, (+), (+)− and − represent decreasing numbers of syncitia formed.; ++, +, (+), (+)− and − represent decreasing numbers of syncitia formed; settings: Table 2
Procedure: HIV-1 NL 4-3 isolate (Adachi et al., 1986; Barré-Sinoussi et al., 1983) and highly cytopathic Zairian HIV-1 NDK isolate (Ellrodt et al., 1984) was propagated in permissive CEM cells (Nara et al., 1987). Uninfected CEM and C8166 (Salahuddin et al., 1983) were maintained in RPMI 1640 (R10) with ultraglutamine (cambrex, Vervier, Belgium), penicillin (100 U/ml), streptomycin (100 μg/ml), and 10% heat-inactivated fetal calf serum (Cambrex).
Samples of 3×10^5/100 μL C8166 cells were preincubated in 96-well microtiter plates in culture medium containing various concentrations of peptide. After a 1 h treatment at 37° C., 100 μl of diluted viral solution of HIV-1 was added. The cells were exposed to the virus for 1 h at 37° C. at a multiplicity of infection of 1000 TCID50 per ml. The cells were washed three times and cultured at 3×10^5/ml of R10 with the treatment in 24-well plates incubated at 37° C. C8166 culture medium was replaced at Day-4 post-infection. The treatment was permanent before virus adsorption, during virus adsorption and after infection. Assays on C8166 cells have been performed at least twice and in duplicate. Toxicity was evaluated by daily cell count and trypan-blue exclusion assay. Infection of C8166 T-cells with HIV-1 was assessed by virus-induced cytopathic effects (syncytia formation) and by quantification of cell free p24 viral protein in the culture supernatants. Measurements of HIV-1 p24^gag concentration in the culture supernatants were achieved by ELISA (ALLIANCE® HIV-1 p24 kit, Perkin Elmer, life sciences, USA).

| Compound | IC50 [1] [nM] | IC100 [1] [µM] | IC50 ([2]; PBL, NL 4-3 strain, Table 4) [nM] | IC100 ([2]; PBL, NL 4-3 strain, Table 4) [µM] | IC100 ([2]; text b43 on PBL results) [µM] | Day 4 syncitia formed ([3]; 1 μM) | Day 5 syncitia formed ([3]; 1 μM) | Day 6 syncitia formed ([3]; 1 μM) | Day 7 syncitia formed ([3]; 1 μM) | Day 4 syncitia formed ([3]; 5 μM) | Day 5 syncitia formed ([3]; 5 μM) | Day 6 syncitia formed ([3]; 5 μM) | Day 7 syncitia formed ([3]; 5 μM) | IC100 ([2]; on PBL) [µM] |
| --- | --- | --- | --- | --- | --- | --- | --- | --- | --- | --- | --- | --- | --- | --- |
| C[C@H](NC(=O)[C@H](CCCNC(=N)N)NC(=O)CNC(=O)[C@@H]1CCCN1C(=O)CN)C(=O)N[C@@H](Cc1ccccc1)C(=O)NCCCCC(=O)O [SPC3 monomer valeric acid, GPGRAF-NHCH2CH2CH2CH2COOH] (H-GPGRAF[Ava]-OH; N-terminus assumed) | 10 | 0.5 | 20 | 0.1 | 0.1 |  |  |  |  |  |  |  |  |  |
| C[C@H](NC(=O)[C@H](CCCNC(=N)N)NC(=O)CNC(=O)[C@@H]1CCCN1C(=O)CN)C(=O)N[C@@H](Cc1ccccc1)C(=O)NCCCC[C@H](NC(=O)[C@H](Cc1ccccc1)NC(=O)[C@H](C)NC(=O)[C@H](CCCNC(=N)N)NC(=O)CNC(=O)[C@@H]1CCCN1C(=O)CN)C(=O)NCCCC[C@H](NC(=O)[C@H](CCCCNC(=O)[C@H](Cc1ccccc1)NC(=O)[C@H](C)NC(=O)[C@H](CCCNC(=N)N)NC(=O)CNC(=O)[C@@H]1CCCN1C(=O)CN)NC(=O)[C@H](Cc1ccccc1)NC(=O)[C@H](C)NC(=O)[C@H](CCCNC(=N)N)NC(=O)CNC(=O)[C@@H]1CCCN1C(=O)CN)C(=O)NCCCC[C@H](NC(=O)[C@H](CCCCNC(=O)[C@H](CCCCNC(=O)[C@H](Cc1ccccc1)NC(=O)[C@H](C)NC(=O)[C@H](CCCNC(=N)N)NC(=O)CNC(=O)[C@@H]1CCCN1C(=O)CN)NC(=O)[C@H](Cc1ccccc1)NC(=O)[C@H](C)NC(=O)[C@H](CCCNC(=N)N)NC(=O)CNC(=O)[C@@H]1CCCN1C(=O)CN)NC(=O)[C@H](CCCCNC(=O)[C@H](Cc1ccccc1)NC(=O)[C@H](C)NC(=O)[C@H](CCCNC(=N)N)NC(=O)CNC(=O)[C@@H]1CCCN1C(=O)CN)NC(=O)[C@H](Cc1ccccc1)NC(=O)[C@H](C)NC(=O)[C@H](CCCNC(=N)N)NC(=O)CNC(=O)[C@@H]1CCCN1C(=O)CN)C(=O)NCCC(=O)O [SPC3, (GPGRAF)8-K4-K2-K-βA-OH, reference compound] | 60 | 0.5 | 10 | 0.1 | 2 | (+) | + | ++ | ++ | − | (+) | + | ++ | 2 |
